Source: patent US20240400564A1 (Syndax Pharmaceuticals, Inc, priority 2021, published 2024)

Legend:
[1] = system: MLLr leukemia cell line MV4-11; assay: Cell proliferation assay MV4;11 (CellTiter-Glo, 72 hours); assay type: cell-based; conditions: Homo sapiens; MV4-11 cells, 72 hours, CellTiter-Glo; read-out: MV4; 11 IC50
Description: Compounds were evaluated for its capacity to inhibit the proliferation of the MLLr leukemia cell line MV4-11 that harbors an MLL1-AF4 fusion protein. MV4-11 cells were cultured for 72 hours with limiting dilutions of compounds and viability was measured using CellTiter-Glo.
Compounds were dissolved to obtain as 10 mM solution in DMSO. The stock was diluted 1:5 to the top concentration of 2 mM in 100% DMSO. For IC50 determination, serial 1:3.16 dilutions were prepared in 100% DMSO by diluting 20 μL into 43.5 μL of DMSO for 8 concentrations. Each prepared DMSO solution were further diluted 1:500 in the cell culture media to obtain the 2× dosing solutions. The final concentrations of tested compounds in the cell culture media ranged from 0.632 nM to 2000 nM.
MV4-11 cells were cultured in IMDM with 10% FBS and 1× Penicillin-Streptomycin at 5% CO2 and 37° C. A cell suspension was prepared containing 15,000 cells/ml in the culture medium and 100 μL of this suspension was added per well to a 96-well cell culture plate. Then, 100 μL of 2× dosing media containing test compounds were added bringing the total volume to 200 μL. These cells were cultured for 72 hours at 37° C. and 5% CO2 in a humidified incubator.
After 72 hours, the cultured cells were mixed and 100 μL was transferred to a 96-well black plate. Cell Titer Glo (100 μl) was then added to this plate. The plate was mixed with shaking for 15 mins at RT, the luminescence was then measured using Tecan Spark 20M spectrophotometer. Cell Viability (%) was determined by RLU of test/RLU average vehicle control*100 and % max inhibition was determined by 100−(% cell viability remaining at the top concentration of compound).

hERG = hERG (Homo sapiens, UniProt Q12809); assay: Patch clamp assay (hERG tail currents, whole-cell)
Sequence of hERG (Q12809 whole entry): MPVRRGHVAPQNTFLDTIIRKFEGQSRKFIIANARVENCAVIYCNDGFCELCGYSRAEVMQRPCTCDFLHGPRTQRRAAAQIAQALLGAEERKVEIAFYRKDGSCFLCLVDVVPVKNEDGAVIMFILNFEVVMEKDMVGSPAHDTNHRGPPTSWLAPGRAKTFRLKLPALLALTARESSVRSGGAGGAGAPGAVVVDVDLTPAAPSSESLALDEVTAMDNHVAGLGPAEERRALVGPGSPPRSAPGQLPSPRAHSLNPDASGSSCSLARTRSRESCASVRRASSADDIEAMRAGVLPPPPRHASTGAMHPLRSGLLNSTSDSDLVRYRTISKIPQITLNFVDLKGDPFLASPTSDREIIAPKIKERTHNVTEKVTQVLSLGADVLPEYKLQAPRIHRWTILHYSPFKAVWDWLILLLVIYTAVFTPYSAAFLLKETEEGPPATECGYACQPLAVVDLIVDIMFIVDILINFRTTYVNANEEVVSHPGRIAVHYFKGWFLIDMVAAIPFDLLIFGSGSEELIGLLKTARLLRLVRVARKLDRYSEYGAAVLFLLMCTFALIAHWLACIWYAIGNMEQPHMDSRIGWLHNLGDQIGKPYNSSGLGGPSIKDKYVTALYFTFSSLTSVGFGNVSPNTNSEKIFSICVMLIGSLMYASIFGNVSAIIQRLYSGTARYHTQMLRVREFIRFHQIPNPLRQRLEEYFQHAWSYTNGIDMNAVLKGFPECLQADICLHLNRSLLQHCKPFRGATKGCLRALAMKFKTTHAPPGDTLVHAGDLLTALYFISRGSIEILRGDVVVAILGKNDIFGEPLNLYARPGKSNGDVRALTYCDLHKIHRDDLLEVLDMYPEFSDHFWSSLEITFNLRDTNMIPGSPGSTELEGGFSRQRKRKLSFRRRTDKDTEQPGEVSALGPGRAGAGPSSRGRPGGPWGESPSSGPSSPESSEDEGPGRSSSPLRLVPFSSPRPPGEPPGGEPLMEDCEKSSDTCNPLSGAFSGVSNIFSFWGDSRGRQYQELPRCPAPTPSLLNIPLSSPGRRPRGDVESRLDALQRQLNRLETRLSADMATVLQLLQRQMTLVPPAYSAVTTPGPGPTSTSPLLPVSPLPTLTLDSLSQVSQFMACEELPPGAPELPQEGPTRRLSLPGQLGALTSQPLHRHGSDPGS
Description: The 35 mm culture dishes upon which cells were seeded at a density allowing single cells to be recorded were placed on the dish holder of the microscope and continuously perfused (at approximately 1 mL/min) with the bath solution described in section 4.6. All solutions applied to cells including the pipette solution were maintained at room temperature (19° C. to 30° C.). After formation of a Gigaohm seal between the patch electrodes and individual hERG stably transfected HEK 293 cells (pipette resistance range: 2.0 MS to 7.0 MS; seal resistance range: >1GΩ) the cell membrane across the pipette tip was ruptured to assure electrical access to the cell interior (whole-cell patch-configuration). In case the quality of the seal was poor, the process of seal formation was repeated with a different cell and a new pipette. As soon as a stable seal could be established, hERG outward tail currents were measured upon depolarization of the cell membrane to +20 mV for 2 s (activation of channels) from a holding potential of −80 mV and upon subsequent repolarization to −40 mV for 3 s. This voltage protocol (as shown below) was run at least 10 times at intervals of 10 s. If current density was judged to be too low for measurement, another cell was recorded.
During wash-in of the test item the voltage protocol indicated above was run continuously again at 10 s intervals until the steady-state level of block was reached.
The IC50 was determined by fitting the dose response curve with a 2-parameter logistic function (amax=100%).

Row | IC50 [1] [nM] | Structure (SMILES) | hERG % Remaining (hERG; 30 μM compound) | also measured
1 | < 100 | CC(C)N(C(=O)c1cc(F)ccc1Oc1cncnc1N1CC2(CCN(C[C@@H]3CC[C@@H](NS(=N)(=O)c4ccccc4)CO3)CC2)C1)C(C)C (mixture of isomers) [Example 228, 5-Fluoro-N,N-diisopropyl-2-((4-(7-(((2S,5R)-5-(phenylsulfonoamidimidamido)tetrahydro-2H-pyran-2-yl)methyl)-2,7-diazaspiro[3.5]nonan-2-yl)pyrimidin-5-yl)oxy)benzamide] |  | 
2 | 100 to 1000 | CC[S@@](=N)(=O)N[C@@H]1CC[C@@H](CN2CCC3(CC2)CN(c2ncncc2Oc2ccc(F)cc2C(=O)N(C(C)C)C(C)C)C3)OC1 (single isomer, unassigned) [Example 226] |  | 
3 | < 100 | CC[S@](=N)(=O)N[C@@H]1CC[C@@H](CN2CCC3(CC2)CN(c2ncncc2Oc2ccc(F)cc2C(=O)N(C(C)C)C(C)C)C3)OC1 (single isomer, unassigned) [Example 227] |  | 
4 | < 100 | CC(C)N(C(=O)c1cc(F)ccc1Oc1cncnc1N1CC2(CCN(C[C@@H]3CC[C@@H](N[S@@](=N)(=O)c4ccccc4)CO3)CC2)C1)C(C)C (single isomer, unassigned) [Example 229] |  | 
5 | < 100 | CC(C)N(C(=O)c1cc(F)ccc1Oc1cncnc1N1CC2(CCN(C[C@@H]3CC[C@@H](N[S@](=N)(=O)c4ccccc4)CO3)CC2)C1)C(C)C (single isomer, unassigned) [Example 230] |  | 
6 | < 100 | CCS(=O)(=O)N[C@@H]1CC[C@@H](CN2CCC3(CC2)CN(c2ncncc2Oc2ccc(F)cc2C(=O)N(C(C)C)[C@@H]2CC[C@H]2O)C3)OC1 (single isomer, unassigned) [Example 256] |  | 
7 | 100 to 1000 | CCS(=O)(=O)N[C@@H]1CC[C@@H](CN2CCC3(CC2)CN(c2ncncc2Oc2ccc(F)cc2C(=O)N(C(C)C)[C@H]2CC[C@@H]2O)C3)OC1 (single isomer, unassigned) [Example 257] |  | 
8 | < 100 | CC(C)N(C)C(=O)c1cc(F)ccc1Oc1cncnc1N1CC2(CCN(C[C@@H]3CC[C@@H](NS(=O)(=O)c4ccn(C)n4)CO3)CC2)C1 [Example 53, Fluoro-N-isopropyl-N-methyl-2-((4-(7-(((2S,5R)-5-((1-methyl-1H-pyrazole)-3-sulfonamido)tetrahydro-2H-pyran-2-yl)methyl)-2,7-diazaspiro[3.5]nonan-2-yl)pyrimidin-5-yl)oxy)benzamide] |  | 
9 | < 100 | Cc1nc(S(=O)(=O)N[C@@H]2CC[C@@H](CN3CCC4(CC3)CN(c3ncncc3Oc3ccc(F)cc3C(=O)N(C)C(C)C)C4)OC2)cs1 [Example 54, 5-Fluoro-N-isopropyl-N-methyl-2-((4-(7-(((2S,5R)-5-((2-methylthiazole)-4-sulfonamido)tetrahydro-2H-pyran-2-yl)methyl)-2,7-diazaspiro[3.5]nonan-2-yl)pyrimidin-5-yl)oxy)benzamide] |  | 
10 | < 100 | CCN(C(=O)c1cc(F)ccc1Oc1cncnc1N1CC2(CCN(C[C@@H]3CC[C@@H](NS(=O)(=O)C4CCOCC4)CO3)CC2)C1)C(C)C [Example 67, N-Ethyl-5-fluoro-N-isopropyl-2-((4-(7-(((2S,5R)-5-((tetrahydro-2H-pyran)-4-sulfonamido)tetrahydro-2H-pyran-2-yl)methyl)-2,7-diazaspiro[3.5]nonan-2-yl)pyrimidin-5-yl)oxy)benzamide] |  | 
11 | < 100 | CCN(C(=O)c1cc(F)ccc1Oc1cncnc1N1CC2(CCN(C[C@@H]3CC[C@@H](NS(=O)(=O)N4CC(F)(F)C4)CO3)CC2)C1)C(C)C [Example 70, 2-((4-(7-(((2S,5R)-5-((3,3-Difluoroazetidine)-1-sulfonamido)tetrahydro-2H-pyran-2-yl)methyl)-2,7-diazaspiro[3.5]nonan-2-yl)pyrimidin-5-yl)oxy)-N-ethyl-5-fluoro-N-isopropylbenzamide] |  | 
12 |  | CCNS(=O)(=O)N[C@@H]1CC[C@@H](CN2CCC3(CC2)CN(c2ncnnc2Oc2ccc(F)cc2C(=O)N(C(C)C)C(C)C)C3)OC1 [Example 198, 2-((5-(7-(((2S,5R)-5-((N-Ethylsulfamoyl)amino)tetrahydro-2H-pyran-2-yl)methyl)-2,7-diazaspiro[3.5]nonan-2-yl)-1,2,4-triazin-6-yl)oxy)-5-fluoro-N,N-diisopropylbenzamide] | +++ (≥66%) | 
13 |  | CC(C)N(C(=O)c1cc(F)ccc1Oc1nncnc1N1CC2(CCN(C[C@@H]3CC[C@@H](NS(=O)(=O)N4CCC4)CO3)CC2)C1)C(C)C [Example 199, 2-((5-(7-(((2S,5R)-5-(Azetidine-1-sulfonamido)tetrahydro-2H-pyran-2-yl)methyl)-2,7-diazaspiro[3.5]nonan-2-yl)-1,2,4-triazin-6-yl)oxy)-5-fluoro-N,N-diisopropylbenzamide] | +++ (≥66%) | 
14 |  | C[C@@H]1COC[C@@H](C)N1C(=O)c1cc(F)ccc1Oc1cncnc1N1CC2(CCN(C[C@@H]3CC[C@@H](NS(=O)(=O)N4CCC[C@@H]4C)CO3)CC2)C1 [Example 209, (S)-N-((3R,6S)-6-((2-(5-(2-((3R,5R)-3,5-Dimethylmorpholine-4-carbonyl)-4-fluorophenoxy)pyrimidin-4-yl)-2,7-diazaspiro[3.5]nonan-7-yl)methyl)tetrahydro-2H-pyran-3-yl)-2-methylpyrrolidine-1-sulfonamide] | +++ (≥66%) | 
15 |  | CC(C)N(CC(F)F)C(=O)c1cc(F)ccc1Oc1cncnc1N1CC2(CCN(C[C@@H]3CC[C@@H](NS(=O)(=O)N(C)CCCO)CO3)CC2)C1 [Example 214, N-(2,2-difluoroethyl)-5-fluoro-2-((4-(7-(((2S,5R)-5-((N-(3-hydroxypropyl)-N-methylsulfamoyl)amino)tetrahydro-2H-pyran-2-yl)methyl)-2,7-diazaspiro[3.5]nonan-2-yl)pyrimidin-5-yl)oxy)-N-isopropylbenzamide] | +++ (≥66%) | 
16 |  | CC(C)N(C(=O)c1cc(F)ccc1Oc1cncnc1N1CC2(CCN(C[C@@H]3CC[C@@H](NS(=O)(=O)N4CC5(CCOC5)C4)CO3)CC2)C1)C(C)C [Example 223, 2-((4-(7-(((2S,5R)-5-(6-Oxa-2-azaspiro[3.4]octane-2-sulfonamido)tetrahydro-2H-pyran-2-yl)methyl)-2,7-diazaspiro[3.5]nonan-2-yl)pyrimidin-5-yl)oxy)-5-fluoro-N,N-diisopropylbenzamide] | +++ (≥66%) | 
17 |  | CC(C)N(CC(F)F)C(=O)c1cc(F)ccc1Oc1cncnc1N1CC2(CCN(C[C@@H]3CC[C@@H](NS(=O)(=O)N(C)CCO)CO3)CC2)C1 [Example 239, N-(2,2-difluoroethyl)-5-fluoro-2-((4-(7-(((2S,5R)-5-((N-(2-hydroxyethyl)-N-methylsulfamoyl)amino)tetrahydro-2H-pyran-2-yl)methyl)-2,7-diazaspiro[3.5]nonan-2-yl)pyrimidin-5-yl)oxy)-N-isopropylbenzamide] | +++ (≥66%) | 
18 |  | CC(C)N(CC(F)F)C(=O)c1cc(F)ccc1Oc1cncnc1N1CC2(CCN(C[C@@H]3CC[C@@H](NS(N)(=O)=O)CO3)CC2)C1 [Example 240, N-(2,2-Difluoroethyl)-5-fluoro-N-isopropyl-2-((4-(7-(((2S,5R)-5-(sulfamoylamino)tetrahydro-2H-pyran-2-yl)methyl)-2,7-diazaspiro[3.5]nonan-2-yl)pyrimidin-5-yl)oxy)benzamide] | +++ (≥66%) | 
19 |  | CC(C)N(C(=O)c1cc(F)ccc1Oc1cncnc1N1CC2(CCN(C[C@@H]3CC[C@@H](NS(=O)(=O)N4CCC4)CO3)CC2)C1)C1COC1 [Example 248, 2-((4-(7-(((2S,5R)-5-(Azetidine-1-sulfonamido)tetrahydro-2H-pyran-2-yl)methyl)-2,7-diazaspiro[3.5]nonan-2-yl)pyrimidin-5-yl)oxy)-5-fluoro-N-isopropyl-N-(oxetan-3-yl)benzamide] | +++ (≥66%) | 
20 |  | CC(C)N(C(=O)c1cc(F)ccc1Oc1cncnc1N1CC2(CCN(C[C@@H]3CC[C@@H](NS(=O)(=O)N(C)C)CO3)CC2)C1)C1COC1 [Example 249, 2-((4-(7-(((2S,5R)-5-((N,N-Dimethylsulfamoyl)amino)tetrahydro-2H-pyran-2-yl)methyl)-2,7-diazaspiro[3.5]nonan-2-yl)pyrimidin-5-yl)oxy)-5-fluoro-N-isopropyl-N-(oxetan-3-yl)benzamide] | +++ (≥66%) | 
21 |  | CCS(=O)(=O)N[C@@H]1CC[C@@H](CN2CCC3(CC2)CN(c2ncncc2Oc2ccc(F)cc2C(=O)N(C(C)C)[C@@H]2CC[C@@H]2O)C3)OC1 [Example 258, 2-((4-(7-(((2S,5R)-5-(Ethylsulfonamido)tetrahydro-2H-pyran-2-yl)methyl)-2,7-diazaspiro[3.5]nonan-2-yl)pyrimidin-5-yl)oxy)-5-fluoro-N-((1R,2S)-2-hydroxycyclobutyl)-N-isopropylbenzamide] | ++ (233% and ≤66%) | hERG % Remaining (hERG; 10 μM compound): +++ (≥66%)
22 |  | CCN(C(=O)c1cc(F)ccc1Oc1cncnc1N1CC2(CCN(C[C@H]3CC[C@H](NS(=O)(=O)CC)CC3)CC2)C1)C(C)C [SNDX-5613] | ++ (233% and ≤66%) | hERG % Remaining (hERG; 1 μM compound): +++ (≥66%); hERG % Remaining (hERG; 3 μM compound): +++ (≥66%); hERG % Remaining (hERG; 10 μM compound): ++ (233% and ≤66%); hERG % Remaining (hERG; 100 μM compound): + (<33%); hERG IC50 (μM) (hERG; hERG stably transfected HEK 293 cells): + (<25 PM)
